Test results from ChEMBL document CHEMBL5154916, “Multiparameter Optimization of Naphthyridine Derivatives as Selective α5-GABAA Receptor Negative Allosteric Modulators” (J Med Chem, 2022).

How the values were obtained:
[1] = target: T1, GABA-A receptor; alpha-5/beta-3/gamma-2 (Homo sapiens, UniProt P18507+P28472+P31644); experiment: Displacement of [3H]Ro151788 from human recombinant alpha5beta3gamma2 GABAA receptor stably expressed in HEK293 cell membrane assessed as inhibition constant by radioligand binding assay; assay type: cell membranes
T1 sequence (P18507 whole entry): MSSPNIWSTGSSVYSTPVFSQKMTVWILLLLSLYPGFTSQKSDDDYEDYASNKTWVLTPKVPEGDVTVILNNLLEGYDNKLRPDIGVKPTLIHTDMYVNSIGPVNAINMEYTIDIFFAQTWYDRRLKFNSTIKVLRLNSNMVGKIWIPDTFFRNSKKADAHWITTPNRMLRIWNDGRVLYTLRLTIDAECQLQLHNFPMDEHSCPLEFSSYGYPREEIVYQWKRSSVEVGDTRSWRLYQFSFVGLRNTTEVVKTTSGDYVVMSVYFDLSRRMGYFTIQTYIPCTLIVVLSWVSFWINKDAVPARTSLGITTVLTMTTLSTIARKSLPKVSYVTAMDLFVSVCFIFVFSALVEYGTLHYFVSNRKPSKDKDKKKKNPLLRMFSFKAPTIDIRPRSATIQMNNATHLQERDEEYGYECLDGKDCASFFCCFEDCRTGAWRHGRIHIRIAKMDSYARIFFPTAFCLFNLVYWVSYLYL
T1 sequence (P28472 whole entry): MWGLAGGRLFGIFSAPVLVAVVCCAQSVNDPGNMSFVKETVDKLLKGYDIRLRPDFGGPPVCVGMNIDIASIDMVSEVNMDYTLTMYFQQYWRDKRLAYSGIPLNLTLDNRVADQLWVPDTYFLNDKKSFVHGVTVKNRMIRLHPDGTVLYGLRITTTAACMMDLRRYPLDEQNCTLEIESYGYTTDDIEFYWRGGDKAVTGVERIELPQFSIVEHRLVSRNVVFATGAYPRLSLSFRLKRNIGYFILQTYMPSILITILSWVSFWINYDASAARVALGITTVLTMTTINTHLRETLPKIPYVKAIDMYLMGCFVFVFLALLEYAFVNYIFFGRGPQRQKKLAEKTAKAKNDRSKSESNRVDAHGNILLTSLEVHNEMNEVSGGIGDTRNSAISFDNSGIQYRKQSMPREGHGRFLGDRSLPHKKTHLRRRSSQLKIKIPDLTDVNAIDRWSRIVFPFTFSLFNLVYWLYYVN
T1 sequence (P31644 whole entry): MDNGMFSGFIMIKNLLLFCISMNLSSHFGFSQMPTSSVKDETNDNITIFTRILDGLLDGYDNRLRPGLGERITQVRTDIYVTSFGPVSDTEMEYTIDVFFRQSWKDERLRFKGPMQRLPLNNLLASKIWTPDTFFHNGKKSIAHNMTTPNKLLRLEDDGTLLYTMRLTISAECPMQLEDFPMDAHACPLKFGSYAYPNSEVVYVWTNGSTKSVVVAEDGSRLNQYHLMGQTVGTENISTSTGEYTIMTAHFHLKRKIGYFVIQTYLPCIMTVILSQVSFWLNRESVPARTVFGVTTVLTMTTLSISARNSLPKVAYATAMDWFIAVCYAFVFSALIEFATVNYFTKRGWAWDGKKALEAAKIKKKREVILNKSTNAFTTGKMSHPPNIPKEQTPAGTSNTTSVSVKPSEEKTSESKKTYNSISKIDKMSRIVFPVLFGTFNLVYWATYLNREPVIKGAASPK

[2] = target: T2, GABA-A receptor; alpha-5/beta-3/gamma-2 (Homo sapiens) (UniProt P18507+P28472+P31644); experiment: Negative allosteric modulation activity at human recombinant alpha5beta3gamma2 GABAA receptor stably expressed in HEK293 cells assessed as modulation at alpha5 subunit at 1 uM by Patch clamp method; assay type: cell-based; settings: filed as negative allosteric modulator
[3] = target: T2, GABA-A receptor; alpha-5/beta-3/gamma-2 (Homo sapiens); experiment: Negative allosteric modulation activity at human recombinant alpha5beta3gamma2 GABAA receptor stably expressed in HEK293 cells assessed as modulation at alpha5 subunit at 10 uM by Patch clamp method; assay type: cell-based; settings: filed as negative allosteric modulator
[4] = target: GABA-A receptor; alpha-1/beta-3/gamma-2 (Homo sapiens) (UniProt P14867+P18507+P28472); experiment: Negative allosteric modulation activity at human recombinant alpha1beta3gamma2 GABAA receptor stably expressed in HEK293 cells assessed as modulation at alpha1 subunit at 10 uM by Patch clamp method; assay type: cell-based; settings: filed as negative allosteric modulator
[5] = target: Voltage-gated inwardly rectifying potassium channel KCNH2 (Homo sapiens, UniProt Q12809); experiment: Inhibition of hERG expressed in CHO cells stably at -80 mV holding potential by automated patch clamp method; assay type: toxicity, cell-based
Chain of Voltage-gated inwardly rectifying potassium channel KCNH2 (Q12809 whole entry): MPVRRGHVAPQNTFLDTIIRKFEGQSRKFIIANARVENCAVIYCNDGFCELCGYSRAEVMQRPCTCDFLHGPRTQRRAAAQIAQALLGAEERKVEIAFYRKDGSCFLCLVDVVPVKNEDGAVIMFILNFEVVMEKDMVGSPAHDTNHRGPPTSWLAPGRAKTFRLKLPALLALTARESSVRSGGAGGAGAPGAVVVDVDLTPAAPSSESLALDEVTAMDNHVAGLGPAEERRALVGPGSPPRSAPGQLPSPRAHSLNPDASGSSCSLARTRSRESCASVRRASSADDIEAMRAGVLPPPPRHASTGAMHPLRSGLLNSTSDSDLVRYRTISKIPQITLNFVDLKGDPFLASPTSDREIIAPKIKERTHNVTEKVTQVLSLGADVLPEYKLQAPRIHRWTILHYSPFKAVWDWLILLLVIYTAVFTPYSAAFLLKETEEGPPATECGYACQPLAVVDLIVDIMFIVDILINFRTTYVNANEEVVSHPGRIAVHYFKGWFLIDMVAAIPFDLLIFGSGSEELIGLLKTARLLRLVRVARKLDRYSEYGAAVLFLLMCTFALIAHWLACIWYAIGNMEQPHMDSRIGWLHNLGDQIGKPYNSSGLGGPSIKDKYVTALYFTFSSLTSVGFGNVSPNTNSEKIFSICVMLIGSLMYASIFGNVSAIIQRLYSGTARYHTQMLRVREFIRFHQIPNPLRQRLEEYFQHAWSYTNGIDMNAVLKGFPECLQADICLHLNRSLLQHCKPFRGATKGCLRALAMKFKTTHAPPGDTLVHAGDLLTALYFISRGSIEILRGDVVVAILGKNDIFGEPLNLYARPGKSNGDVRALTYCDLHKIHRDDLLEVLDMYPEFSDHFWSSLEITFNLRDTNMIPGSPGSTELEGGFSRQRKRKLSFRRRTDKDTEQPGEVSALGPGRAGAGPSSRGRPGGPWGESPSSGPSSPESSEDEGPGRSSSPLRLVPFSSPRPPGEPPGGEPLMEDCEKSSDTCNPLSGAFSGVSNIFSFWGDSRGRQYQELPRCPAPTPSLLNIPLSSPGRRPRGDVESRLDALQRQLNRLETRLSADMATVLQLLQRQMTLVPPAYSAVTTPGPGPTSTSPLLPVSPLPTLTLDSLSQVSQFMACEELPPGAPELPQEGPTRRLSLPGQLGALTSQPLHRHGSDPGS

[6] = Metabolic stability in human liver microsomes assessed as intrinsic clearance at 2.5 uM; assay type: ADME, Microsome; settings: read-out: CLH
[7] = Metabolic stability in Wistar rat liver microsomes assessed as intrinsic clearance at 2.5 uM; assay type: ADME, Microsome; settings: read-out: CLH
[8] = Passive permeability in human Caco-2 cells assessed as permeability damage ratio at 10 uM by HPLC-UV analysis; assay type: ADME, cell-based; settings: caco-2, 10 µM
[9] = Apparent permeability in human Caco-2 cells at 10 uM by HPLC-UV analysis; assay type: ADME, cell-based

Row | SMILES | Ki [1] | Activity [2] | Activity [3] | Activity [4] | IC50 [5] | microsomal CLint at 2.5 µM [6] | microsomal CLint at 2.5 µM [7] | Ratio [8] | Papp at 10 µM [9]
1 | Cc1onc(-c2ccc(F)cc2)c1COc1ccc2c(n1)CCN(CC1CCCS1(=O)=O)C2=O (configuration not stated) | 23 nM | -23% | -36% | -12% | 1800 nM |  |  |  | 
2 | Cc1onc(-c2ccc(F)cc2)c1COc1ccc2c(n1)CCN(C(=O)C1CC1)C2 | 8.3 nM | -4% | -34% |  | 5800 nM | 71 µL/min/mg | 388 µL/min/mg |  | 
3 | Cc1nnn(-c2ccc(F)cc2)c1COc1ccc2c(n1)CCN(C(=O)NC1CCOC1)C2 (configuration not stated) | 28 nM | -32% | -34% |  | 21000 nM | 10 µL/min/mg | 39 µL/min/mg | 4.7 | 18.7 ×10⁻⁶ cm/s
4 | Cc1onc(-c2ccc(F)cc2)c1COc1ccc2c(n1)CCN(C(=O)c1ccno1)C2 | 4.6 nM | -13% | -32% |  | 6400 nM | 67 µL/min/mg | 245 µL/min/mg |  | 
5 | Cc1onc(-c2ccc(F)cc2)c1COc1ccc2c(n1)CCN(C(=O)C1CCOCC1)C2 | 9.2 nM | -20% | -37% | -9% | 5700 nM | 10 µL/min/mg | 93 µL/min/mg |  | 
6 | Cc1onc(-c2ccc(F)cc2)c1COc1ccc2c(n1)CCN(CC1CCCO1)C2=O (configuration not stated) | 23 nM | -29% | -28% | -6% | 2900 nM |  |  |  | 
7 | Cc1onc(-c2ccc(F)cc2)c1COc1ccc2c(n1)CCN(Cc1ccno1)C2=O | 9 nM | -29% | -35% | -10% | 2500 nM |  |  |  | 
8 | Cc1onc(-c2ccc(F)cc2)c1COc1ccc2c(c1)OCC(=O)N2C | 14 nM | -16% |  |  |  | 33 µL/min/mg | 381 µL/min/mg |  | 
9 | Cc1onc(-c2ccc(F)cc2)c1COc1ccc2c(n1)CCN(C1CCOC1)C2=O (configuration not stated) | 8 nM | -25% | -39% | -10% | 3200 nM | 29 µL/min/mg | 139 µL/min/mg |  | 
10 | Cc1onc(-c2ccc(F)cc2)c1COc1ccc2c(n1)CCN(C(=O)C1CCOC1)C2 (configuration not stated) | 7 nM | -24% | -40% | -14% | 3600 nM | 24 µL/min/mg | 158 µL/min/mg |  | 
11 | Cc1onc(-c2ccc(F)cc2)c1COc1ccc2c(n1)CCNC2=O | 4.1 nM | -25% | -42% | 2% | 10000 nM | 14 µL/min/mg | 227 µL/min/mg |  | 
12 | CC(=O)N1CCc2nc(OCc3c(-c4ccc(F)cc4)noc3C)ccc2C1 | 1.9 nM | -19% | -16% |  | 5300 nM | 74 µL/min/mg | 301 µL/min/mg |  | 
13 | CCC(=O)N1CCc2nc(OCc3c(C)nnn3-c3ccc(F)cc3)ccc2C1 | 46 nM |  |  |  |  | 48 µL/min/mg | 92 µL/min/mg |  | 
14 | Cc1onc(-c2ccc(F)cc2)c1COc1ccc(C(=O)N2CCS(=O)(=O)CC2)cn1 [BASMISANIL] | 4.4 nM | -24% | -25% | -2% |  | 7.5 µL/min/mg | 22 µL/min/mg |  | 
15 | Cc1onc(-c2ccc(F)cc2)c1COc1ccc2c(c1)CCNC2=O | 10 nM | -6% | -7% |  |  | 10 µL/min/mg | 108 µL/min/mg |  | 
